Data from patent publication US7816521B2, “1,2,4-benzotriazine-1,4-dioxides” (Auckland Uniservices Limited, priority 2004, dated 2010).
Read-outs that look alike come from different tables or passages of the source.

Assays:
HT29 cells = assay: First order rate constant for anoxic metabolism in HT29 cells (kmet); assay type: in vitro ADME, human; settings: rate constant of bioreductive metabolism, Table 1
Method: The apparent first order rate constants for anoxic metabolism in HT29 cells (kmet) of compounds representative of the invention were either: • 1. Estimated at the C10 experimentally by incubating stirred single cell suspensions (typically 10 ml at 2×10^6/ml of HT29 cells derived by trypsinisation of multicellular spheroids) in αMEM without serum in 20 ml bottles under flowing 5% CO2/N2 for 90 min, then introducing the compound using deoxygenated DMSO stock solutions to give a range of final drug concentrations. Samples (0.5 ml) were removed at intervals (typically 5 min, 30 min, 1,2,3 hr), washed by centrifugation, and plated to determine the number of clonogenic survivors as described by Hicks et al Cancer Res. 2003 63, 5970. The concentration of compound giving 1 log of kill at 1 hr (C10) was estimated by interpolation. Additional samples taken at the same times were centrifuged to remove cells, and supernatant stored at −80° C. for subsequent HPLC or LCMS analysis. The concentration of compound in the extracellular medium was plotted against time and the concentration closest to the C10 was used to estimate the first order rate constant. This was scaled to MCL cell density as described in Hicks et al, Cancer Res. 2003, 63, 5970 to obtain kmet. Cell viability was determined with a hemocytometer at the end of drug exposure by staining with 0.4% trypan blue to ensure metabolic viability was >75%. TPZ (30 μM) was included in each experiment as a reference compound. O2, in solution was measured using an OxyLite O2 luminescent fiber optic probe (Oxford Optronix Ltd, UK) to ensure severe hypoxia (<0.1 μM).

[1] = Plasma pharmacokinetics, AUC of free drug in CD-1 nude mice; assay type: in vivo, mouse; settings: for AUC: CD-1 nude, mouse, ip
Method: The area under the concentration time curve for free drug (AUCf) in mouse plasma at the maximum tolerated dose (MTD) was determined either experimentally or by calculation.
The compound was formulated in a suitable vehicle (e.g. 0.9% saline, 5% DMSO in 0.9% saline) and administered intraperitoneally (i.p.) as single dose to CD-1 nude mice in a dose-escalating format using 1.33-fold dose increments.
The compound was administered to CD-1 nude mice in a suitable formulation as a single dose (i.p.) at the MTD. Blood samples were collected by retro-orbital sinus bleed or cardiac puncture after which the mouse was culled, or by serial bleeding from the tail vein. Typical time points were 15, 30, 60, and 120 min after administration. Blood was collected in a heparinised container and centrifuged to collect the plasma. The plasma concentration of the compound was determined by HPLC or LCMS using suitable sample preparation and analytical methods. Calibration was done with internal or external standards. The area under the concentration-time curve (AUC) for total (free plus bound) drug was calculated using the linear/log trapezoidal rule and extrapolation to infinity OR standard non-compartmental (PK) modelling.
Plasma protein binding was measured by the determination of the free fraction (FF) by equilibrium dialysis at 37° C. in 50% (v/v) mouse plasma in phosphate-buffered saline (pH 7.4), using a single drug concentration at or near the observed or extrapolated maximum concentration in plasma (Cmax). Compound concentrations after dialysis were determined by HPLC or LCMS.
AUCf for the compound administered as a single dose (i.p.) to CD-1 nude mice at the MTD can be estimated using the following regression equation: Log10(AUCf)=a+b×log Pneutral+c×log10(IC50)+d×log10(HCR)+e×log10(DMCL)+f×log10(kmet)+g×(log Pneutral)^2 where the coefficients are described in the following table: […]

[2] = tested on: HT29 multicellular layers; assay type: in vitro ADME; settings: human
Method: A: Diagram of a Millicell® CM culture insert used for growing MCLs on a porous, collagen-coated Teflon membrane. B: H&E-stained transverse section of an HT-29 MCL three days after initiating growth with 10^6 cells. The Teflon membrane is ca 30 μm thick. C: Diffusion apparatus for measurement of transport through MCLs. D: Diffusion of TPZ (100 μM) through well oxygenated (open circles) and […] poorly oxygenated (filled circles) HT29 MCLs of equivalent thickness (141±5 μm). Concentrations are normalized to the initial concentration in the donor compartment (Co). The Lines are fits to a reaction-diffusion model. Also shown is the diffusion of compound #20 through a well oxygenated MCL of a similar thickness illustrating the effect of raising the diffusion coefficient from 4×10^−7 cm^2s^−1 to 1.4×10^−6 cm^2s^−1.
The diffusion coefficients in HT29 MCL (DMCL) of compounds representative of the invention were determined either by: • 1. Measurement of drug diffusion in HT29 MCL (grown in culture inserts and seeded at 1×10^6 cells per insert and grown for 3-4 days) in a 2 chamber diffusion apparatus containing culture medium with measurement from both the donor and receiver compartments and gassing at ≧20% O2 to suppress bioreductive metabolism as described in Hicks et al (Cancer Res. 2003, 63, 5970-5977). Samples of medium are taken at intervals, drug concentrations determined by HPLC or LCMS and the concentration-time profile was fitted to Fick's second law of diffusion and the differential equation was solved numerically to obtain the estimate of DMCL.
OR • 2. Calculated from the logistic regression equation
where • a. Log P7.4 is the base 10 logarithm of the octanol-water partition coefficient of the compound at pH 7.4 measured or calculated using the techniques described below • b. HD is the number of hydrogen bond donors (which is the sum of all NH— and OH-groups) • c. HA is the number of hydrogen bond acceptors (which is the sum of all N— and O-atoms) • d. Mr is the molecular weight of the non-ionised drug and a, g, d, a, x0, e, h, and b are regression coefficients as outlined in the table.
Values of the coefficient g are cell line dependent; this value has been determined as 0.3051 (SE 0.0427, CV 13.99%, p<0.001) for SiHa MCLs, and is set at zero for HT29 MCLs.

[3] = tested on: human colon carcinoma cell line HT-29; assay: Proliferation assay (IC50) under aerobic and hypoxic conditions; assay type: cell-based; settings: for IC50: Homo sapiens, HT-29, HT29, anoxic, 4 hr exposure; for HCR: hypoxic cytotoxicity ratio: aerobic IC50 / hypoxic IC50, HT29
Method: Compounds representative of the invention were evaluated under both aerobic and hypoxic conditions in a proliferation assay (IC50) using the human colon carcinoma cell line HT-29 as previously described [Hay et al, J. Med. Chem, 2003, 46, 169]. For each experiment, compounds were simultaneously tested under both oxic and hypoxic conditions and included TPZ as an independent internal control at the front and back of the assay. In all cases, a 8-methyl-5-nitroquinoline derivative was used as a second internal control to confirm that strict hypoxia was present during the experiment [Siim et al., Br. J. Cancer 1994, 70, 596].

[4] = AUC of free drug, single i.p. dose at maximum tolerated dose, mice, Table 1
[5] = plasma, mouse plasma, free drug, at the MTD or 75% of the MTD, Table 2, read-out: AUC
[6] = plasma, AUC of free drug, single i.p. dose at maximum tolerated dose, mice, Table 1, read-out: AUCf

Compound: Nc1n[n+]([O-])c2ccccc2[n+]1[O-] [A, tirapazamine, reference compound]
- kmet (HT29 cells): 0.60 min⁻¹
- AUC ([1]; in vivo, AUC): 148 µM·h
- AUC ([1]; in vivo, AUCf): 148 µM·h
- DMCL [2]: 3.97 × 10^−7 cm^2s^−1
- diffusion coefficient ([2]; 100 μM): 4×10^−7 cm^2s^−1
- reduction in diffusion in poorly oxygenated versus well oxygenated HT29 MCLs ([2]; 100 μM): 2 fold

Compound: Cc1ccc2c(c1)[n+]([O-])c(N)n[n+]2[O-] [B, 6-Methyl-1,2,4-benzotriazin-3-amine 1,4-Dioxide]
- kmet (HT29 cells): 0.20 min⁻¹
- AUCf [1, 4]: 188.7 µM·h
- AUC [1, 5]: 216 µM·h
- IC50 [3]: 12900 nM
- HCR [3]: 35.8
- DMCL [2]: 5.43 × 10^−7 cm^2s^−1

Compound: Nc1n[n+]([O-])c2cc(Cl)ccc2[n+]1[O-] [C, 7-Chloro-1,2,4-benzotriazin-3-amine 1,4-Dioxide]
- kmet (HT29 cells): 3.92 min⁻¹
- AUC [1, 6]: 1.9 µM·h
- AUC [1, 5]: 2.7 µM·h
- IC50 [3]: 730 nM
- HCR [3]: 28.5
- DMCL [2]: 8.70 × 10^−7 cm^2s^−1

Compound: Nc1n[n+]([O-])c2c(Cl)cccc2[n+]1[O-] [D, 8-Chloro-1,2,4-benzotriazin-3-amine 1,4-Dioxide]
- kmet (HT29 cells): 10.03 min⁻¹
- AUC [1, 6]: 0.8 µM·h
- AUC [1, 5]: 0.7 µM·h
- IC50 [3]: 550 nM
- HCR [3]: 13.6
- DMCL [2]: 6.69 × 10^−7 cm^2s^−1

Compound: CS(=O)(=O)c1ccc2c(c1)[n+]([O-])nc(N)[n+]2[O-] [E, 7-(Methylsulfonyl)-1,2,4-benzotriazin-3-amine 1,4-Dioxide]
- kmet (HT29 cells): 1.00 min⁻¹
- AUC [1, 6]: 15.6 µM·h
- AUC [1, 5]: 15.6 µM·h
- IC50 [3]: 9950 nM
- HCR [3]: 12.0
- DMCL [2]: 2.13 × 10^−7 cm^2s^−1

Compound: Cc1ccc2c(c1)[n+]([O-])nc(NCCN(C)C)[n+]2[O-] [F, 7-Methyl-N-[2-(dimethylamino)ethyl]-1,2,4-benzotriazin-3-amine 1,4-Dioxide]
- kmet (HT29 cells): 2.54 min⁻¹
- AUC [1, 6]: 3.5 µM·h
- AUC [1, 5]: 3.9 µM·h
- IC50 [3]: 1080 nM
- HCR [3]: 34.3
- DMCL [2]: 5.09 × 10^−7 cm^2s^−1

Compound: CCCN(CCC)CCNc1n[n+]([O-])c2ccccc2[n+]1[O-] [G]
- kmet (HT29 cells): 4.89 min⁻¹
- AUCf [1, 4]: 7.2 µM·h
- AUC [1, 5]: 7.1 µM·h
- IC50 [3]: 1650 nM
- HCR [3]: 81.6
- DMCL [2]: 1.71 × 10^−6 cm^2s^−1

Compound: Cc1ccc2c(c1)[n+]([O-])c(NCCN(C)C)n[n+]2[O-] [H, N^1,N^1-Dimethyl-N^2-(6-methyl-1,4-dioxido-1,2,4-benzotriazin-3-yl)-1,2-ethanediamine]
- kmet (HT29 cells): 1.52 min⁻¹
- AUCf [1, 4]: 69.0 µM·h
- AUC [1, 5]: 67.8 µM·h
- IC50 [3]: 1850 nM
- HCR [3]: 159.0
- DMCL [2]: 3.99 × 10^−7 cm^2s^−1

Compound: CCc1n[n+]([O-])c2ccccc2[n+]1[O-] [I]
- kmet (HT29 cells): 1.91 min⁻¹
- AUC [1, 6]: 141 µM·h
- AUC [1, 5]: 139 µM·h
- IC50 [3]: 6780 nM
- HCR [3]: 54.2
- DMCL [2]: 2.61 × 10^−6 cm^2s^−1

Compound: COCCc1n[n+]([O-])c2ccccc2[n+]1[O-] [J]
- kmet (HT29 cells): 2.01 min⁻¹
- AUC [1, 6]: 79 µM·h
- AUC [1, 5]: 83.5 µM·h
- IC50 [3]: 3500 nM
- HCR [3]: 49.4
- DMCL [2]: 2.09 × 10^−6 cm^2s^−1

Compound: [O-][n+]1nc(NCCCCCCNc2c3ccccc3nc3ccccc23)[n+]([O-])c2ccccc21 [K]
- kmet (HT29 cells): 18.33 min⁻¹
- AUC [1, 6]: 0.042 µM·h
- IC50 [3]: 25 nM
- HCR [3]: 31.8
- DMCL [2]: 6.17 × 10^−7 cm^2s^−1

Compound: CN(CCCNC(=O)c1cccc2cc3ccccc3nc12)CCCNc1n[n+]([O-])c2ccccc2[n+]1[O-] [L]
- kmet (HT29 cells): 9.18 min⁻¹
- AUC [1, 6]: 3.6 µM·h
- AUC [1, 5]: 3.3 µM·h
- IC50 [3]: 50 nM
- HCR [3]: 154.0
- DMCL [2]: 3.82 × 10^−7 cm^2s^−1

Compound: CN(CCCNC(=O)c1cccc2ccc(-c3ccncc3)nc12)CCCNc1n[n+]([O-])c2ccccc2[n+]1[O-] [M]
- kmet (HT29 cells): 9.13 min⁻¹
- AUC [1, 6]: 0.9 µM·h
- AUC [1, 5]: 1.2 µM·h
- IC50 [3]: 125 nM
- HCR [3]: 119.0
- DMCL [2]: 9.80 × 10^−8 cm^2s^−1

Compound: Cc1ccc2c(c1)[n+]([O-])c(NCCCN(C)CCCNC(=O)c1cccc3cc4ccccc4nc13)n[n+]2[O-] [N]
- kmet (HT29 cells): 4.74 min⁻¹
- AUC [1, 6]: 1.3 µM·h
- AUC [1, 5]: 1.6 µM·h
- IC50 [3]: 225 nM
- HCR [3]: 134.0
- DMCL [2]: 1.05 × 10^−7 cm^2s^−1
